Data from US10059687B2, “Histone demethylase inhibitors” (CELGENE QUANTICEL RESEARCH, INC., priority 2015, dated 2018).

How the values were obtained:
[1] = target: Jarid1B (Homo sapiens (Human), UniProt Q9UGL1); experiment: In vitro enzyme inhibition assay for Jarid1B activity (TR-FRET); format: biochemical
Method: The ability of test compounds to inhibit the activity of Jarid1B was determined in 384-well plate format under the following reaction conditions: 0.8 nM Jarid1B, 300 nM H3K4me3-biotin labeled peptide (Anaspec cat #64357), 2 μM alpha-ketoglutaric acid in assay buffer of 50 mM HEPES, pH7.3, 0.005% Brij35, 0.5 mM TCEP, 0.2 mg/ml BSA, 50 μM sodium L-ascorbate, and 2 μM ammonium iron(II) sulfate. Reaction product was determined quantitatively by TR-FRET after the addition of detection reagent Phycolink Streptavidin-allophycocyanin (Prozyme) and Europium-anti-H3K4me or -H3K4me2 antibody (PerkinElmer) in the presence of 5 mM EDTA in LANCE detection buffer (PerkinElmer) at a final concentration of 25 nM and 1 nM, respectively.
(§1) The assay reaction was initiated by the following: 2 μl of the mixture of 900 nM H3K4me3-biotin labeled peptide and 6 μM alpha-ketoglutaric acid with 2 μl of 11-point serial diluted inhibitor in 3% DMSO was added to each well of the plate, followed by the addition of 2 μl of 2.4 nM Jarid1B to initiate the reaction. The reaction mixture was incubated at RT for 30 min, and terminated by the addition of 6 μl of 5 mM EDTA in LANCE detection buffer containing 50 nM Phycolink Streptavidin-allophycocyanin and 2 nM Europium-anti-H3K4me/H3K4me2 antibody. Plates were read by EnVisionMultilabel Reader in TR-FRET mode (excitation at 320 nm, emission at 615 nm and 665 nm) after 1 hr incubation at RT. A ratio was calculated (665/615) for each well and fitted to determine inhibition constant (IC50).

[2] = target: JMJD3 (Homo sapiens, UniProt O15054); experiment: In vitro enzyme inhibition assay for JMJD3 activity (TR-FRET); format: biochemical
Method: This assay determines the ability of a test compound to inhibit JMJD3 demethylase activity. Baculovirus expressed JMJD3 (GenBank Accession #NM-001080424, AA1043-end) was purchased from BPS Bioscience (Cat#50115).
The enzymatic assay of JMJD3 activity is based upon Time Resolved-Fluorescence Resonance Energy Transfer (TR-FRET) detection. The ability of test compounds to inhibit the activity of JMJD3 was determined in 384-well plate format under the following reaction conditions: 5 nM JMJD3, 250 nM H3K27me3-biotin labeled peptide (Anaspec cat #64367), 0.4 to 2 μM α-ketoglutaric acid in assay buffer of 50 mM HEPES, pH7.3, 0.005% Brij35, 0.5 mM TCEP, 0.2 mg/ml BSA, 50 μM sodium L-ascorbate, and 5 μM ammonium iron(II) sulfate. Reaction product was determined quantitatively by TR-FRET after the addition of detection reagent Phycolink Streptavidin-allophycocyanin (Prozyme) and Europium-anti-H3K27me2 antibody (PerkinElmer) in the presence of 5 mM EDTA in LANCE detection buffer (PerkinElmer) at a final concentration of 50 nM and 1 nM, respectively.
The assay reaction was initiated by the following: […] of the mixture of 750 nM H3K27me3-biotin labeled peptide and 1.2 to 6 μM alpha-ketoglutaric acid with 2 μL of 11-point serial diluted inhibitor in 3% DMSO were added to each well of plate, followed by the addition of 2 μl of 15 nM JMJD3 to initiate the reaction. The reaction mixture was incubated at RT for 30 min, and terminated by the addition of 6 μL of 5 mM EDTA in LANCE detection buffer containing 100 nM Phycolink Streptavidin-allophycocyanin and 2 nM Europium-anti-H3K27me2 antibody. Plates were read by EnVisionMultilabel Reader in TR-FRET mode (excitation at 320 nm, emission at 615 nm and 665 nm) after 1 hr incubation at RT. A ratio from the readout of 665/615 was calculated for each well and fitted to determine inhibition constant (IC50).

[3] = system: Jurkat cells; experiment: Jurkat (T-ALL) cell line proliferation assay (Cell-MTS Assay); format: cell-based; details: Homo sapiens, 168 hr incubation, cell gives A/B enantiomer values, read-out: Cellular IC50
Source text: The Jurkat (T-ALL) cell line proliferation assay (Cell-MTS Assay) is a colorimetric cellular assay to assess the ability of KDM small molecule inhibitors to effect the proliferation of the established human acute T cell leukemia cancer cell line Jurkat.
This Cell-MTS assay is a 7-day plate-based colorimetric assay which quantifies the amount of newly generated NADH in the presence and absence of test compound. These NADH levels are used as a proxy for the quantification of cancer cell proliferation.
The established cancer cell line Jurkat with a verified p53 mutation were purchased from American Type Culture Collection (ATCC) and routinely passaged according to ATCC published protocols. For routine assay these cells were seeded at a density of 10,000 cells per 96-well. 24 hr after plating, cells received an 11-point dilution of test compound with final concentration ranges from 10 μM to 0.15 nM. Cells were incubated in the presence of compound for 168 hr at 37° C., 5% CO2. At the end of this compound incubation period, 80 μl of media is removed and 20 μL of CellTiter 96® AQueous Non-Radioactive Cell Proliferation Assay solution (Promega) is added. The cells were incubated until the OD490 reached >0.6. IC50 values are calculated using the IDBS XLfit software package and include background subtracted OD490 values and normalization to DMSO controls. Cellular proliferation IC50 values are uploaded and archived using the Chem Biography Platform.

[4] = target: JMJD2C (Homo sapiens (Human), UniProt Q9H3R0); experiment: In vitro enzyme inhibition assay for JMJD2C activity (TR-FRET); format: biochemical
Method: This assay determines the ability of a test compound to inhibit JMJD2C demethylase activity. Baculovirus expressed JMJD2C (GenBank Accession #BC143571, AA 2-372) was purchased from BPS Bioscience (Cat#50105).
The ability of test compounds to inhibit the activity of JMJD2C was determined in 384-well plate format under the following reaction conditions: 0.3 nM JMJD2C, 300 nM H3K9me3-biotin labeled peptide (Anaspec cat #64360), 2 μM alpha-ketoglutaric acid in assay buffer of 50 mM HEPES, pH7.3, 0.005% Brij35, 0.5 mM TCEP, 0.2 mg/ml BSA, 50 μM sodium L-ascorbate, and 2 μM ammonium iron(II) sulfate. Reaction product was determined quantitatively by TR-FRET after the addition of detection reagent Phycolink Streptavidin-allophycocyanin (Prozyme) and Europium-anti-di-methylated histone H3 lysine 9 (H3K9me2) antibody (PerkinElmer) in the presence of 5 mM EDTA in LANCE detection buffer (PerkinElmer) at a final concentration of 50 nM and 1 nM, respectively.
as §1, with “nM H3K9me3-biotin” for “nM H3K4me3-biotin”, “DMSO were” for “DMSO was”, “of 0.9” for “of 2.4”, “nM JMJD2C” for “nM Jarid1B”, “containing 100” for “containing 50”, “nM Europium-anti-H3K9me2” for “nM Europium-anti-H3K4me/H3K4me2”

[5] = system: esophageal squamous cell carcinoma KYSE-150 cells; experiment: Cellular IC50 in KYSE-150 cells; format: cell-based; details: Homo sapiens, one class given per A and B pair
Source text: Table 7 provides IC50 values of various compounds disclosed herein, tested in cellular human esophageal squamous cell carcinoma KYSE-150 cells: […]

[6] = Table 4, cell gives A/B enantiomer values
[7] = Table 5, one class given per A and B pair

JMJD2C, sequence (Q9H3R0 2-372): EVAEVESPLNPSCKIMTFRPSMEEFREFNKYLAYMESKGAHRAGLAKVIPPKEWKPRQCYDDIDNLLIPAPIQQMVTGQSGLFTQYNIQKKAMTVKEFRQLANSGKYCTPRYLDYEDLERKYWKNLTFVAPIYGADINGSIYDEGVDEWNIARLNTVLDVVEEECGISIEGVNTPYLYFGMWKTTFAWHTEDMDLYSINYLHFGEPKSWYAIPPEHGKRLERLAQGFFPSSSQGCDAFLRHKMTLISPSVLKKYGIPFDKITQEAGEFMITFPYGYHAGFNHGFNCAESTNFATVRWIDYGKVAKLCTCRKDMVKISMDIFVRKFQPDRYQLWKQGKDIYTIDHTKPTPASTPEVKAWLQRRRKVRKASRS
Jarid1B, sequence (Q9UGL1 whole entry, species assumed): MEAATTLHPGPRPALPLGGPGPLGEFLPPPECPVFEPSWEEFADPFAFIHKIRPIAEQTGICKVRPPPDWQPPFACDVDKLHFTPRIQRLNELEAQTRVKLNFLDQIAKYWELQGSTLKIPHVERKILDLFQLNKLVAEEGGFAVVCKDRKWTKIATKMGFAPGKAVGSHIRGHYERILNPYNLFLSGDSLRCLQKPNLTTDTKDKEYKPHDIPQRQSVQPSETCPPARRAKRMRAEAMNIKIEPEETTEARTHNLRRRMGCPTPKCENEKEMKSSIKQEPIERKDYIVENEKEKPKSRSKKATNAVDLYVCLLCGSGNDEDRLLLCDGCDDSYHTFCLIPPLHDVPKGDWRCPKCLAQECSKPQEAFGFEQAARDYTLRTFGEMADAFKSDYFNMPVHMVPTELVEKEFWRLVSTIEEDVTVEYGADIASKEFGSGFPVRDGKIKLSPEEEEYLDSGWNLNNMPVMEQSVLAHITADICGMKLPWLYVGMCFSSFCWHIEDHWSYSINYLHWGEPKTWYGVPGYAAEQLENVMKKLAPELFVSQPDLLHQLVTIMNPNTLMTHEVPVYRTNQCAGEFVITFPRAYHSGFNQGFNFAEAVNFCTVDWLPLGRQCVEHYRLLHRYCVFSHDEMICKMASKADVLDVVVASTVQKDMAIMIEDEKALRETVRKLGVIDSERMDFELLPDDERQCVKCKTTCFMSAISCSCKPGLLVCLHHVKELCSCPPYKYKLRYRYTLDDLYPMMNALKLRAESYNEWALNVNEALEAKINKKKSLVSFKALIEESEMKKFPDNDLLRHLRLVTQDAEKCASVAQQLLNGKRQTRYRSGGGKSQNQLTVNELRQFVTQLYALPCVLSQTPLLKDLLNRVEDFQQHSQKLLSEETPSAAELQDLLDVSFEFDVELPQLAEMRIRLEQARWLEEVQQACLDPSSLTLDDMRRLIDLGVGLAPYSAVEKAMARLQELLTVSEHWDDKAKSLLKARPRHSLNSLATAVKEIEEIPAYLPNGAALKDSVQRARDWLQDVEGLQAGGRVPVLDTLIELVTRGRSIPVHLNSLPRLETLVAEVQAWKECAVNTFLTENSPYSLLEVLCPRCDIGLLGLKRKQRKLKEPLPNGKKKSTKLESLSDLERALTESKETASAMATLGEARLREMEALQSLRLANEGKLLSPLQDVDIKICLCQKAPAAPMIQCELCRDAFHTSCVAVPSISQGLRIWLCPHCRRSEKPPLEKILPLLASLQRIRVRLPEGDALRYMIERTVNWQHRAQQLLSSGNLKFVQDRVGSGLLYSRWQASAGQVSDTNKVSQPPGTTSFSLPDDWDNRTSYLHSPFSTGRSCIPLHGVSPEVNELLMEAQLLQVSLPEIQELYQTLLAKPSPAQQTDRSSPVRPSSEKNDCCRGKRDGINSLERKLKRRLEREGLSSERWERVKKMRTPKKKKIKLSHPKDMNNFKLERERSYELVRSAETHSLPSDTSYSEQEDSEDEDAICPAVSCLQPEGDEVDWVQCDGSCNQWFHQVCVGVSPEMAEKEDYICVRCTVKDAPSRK

Structure (SMILES) | IC50 [1, 6] [nM] | IC50 [1, 7] [nM] | IC50 [2, 6] [nM] | IC50 [2, 7] [nM] | IC50 [3] [nM] | IC50 [4, 6] [nM] | IC50 [4, 7] [nM] | IC50 [5] [nM]
Cc1cc(OCC(F)(F)F)ccc1-c1ccc2c(c1)CCN[C@@H]2CNc1cnccc1C(=O)O [Example 2A, 3-[({(1S)-6-[2-methyl-4-(2,2,2-trifluoro-ethoxy)phenyl]-1,2,3,4-tetrahydro-isoquinolyl}methyl)amino]pyridine-4-carboxylic acid] | ≤ 100 | ≤ 100 | 1000 to 10000 | 1000 to 10000 | 100 to 1000 | 1000 to 10000 | 1000 to 10000 | > 10000
Cc1ccc(N(C)c2ccc3c(c2)CCN[C@@H]3CNc2cnccc2C(=O)O)cc1 [Example 1A, 3-[({(1S)-6-[methyl(4-methylphenyl)amino]-1,2,3,4-tetrahydroisoquinolyl}methyl)amino]pyridine-4-carboxylic acid] | ≤ 100 | ≤ 100 | – | – | ≤ 100 | 100 to 1000 | 100 to 1000 | 1000 to 10000
Cc1cc(OCC(F)(F)F)ccc1-c1ccc2c(c1)CCN[C@H]2CNc1cnccc1C(=O)O [Example 2B, 3-[({(1R)-6-[2-methyl-4-(2,2,2-trifluoroethoxy)phenyl]-1,2,3,4-tetrahydroisoquinolyl)methyl)amino]pyridine-4-carboxylic acid] | ≤ 100 | ≤ 100 | 1000 to 10000 | 1000 to 10000 | 100 to 1000 | 1000 to 10000 | 1000 to 10000 | > 10000
Cc1cc(OCC2CC2)ccc1-c1ccc2c(c1)CCN[C@@H]2CNc1cnccc1C(=O)O [Example 4A, 3-[({(1S)-6-[4-(cyclopropylmethoxy)-2-methylphenyl]-1,2,3,4-tetrahydro-isoquinolyl}methyl)amino]pyridine-4-carboxylic acid] | ≤ 100 | ≤ 100 | 1000 to 10000 | > 10000 | – | 1000 to 10000 | 100 to 1000 | 100 to 1000
Cc1cc(OCC2CC2)ccc1-c1ccc2c(c1)CCN[C@H]2CNc1cnccc1C(=O)O [Example 4B, 3-[({(1R)-6-[4-(cyclopropylmethoxy)-2-methylphenyl]-1,2,3,4-tetrahydro-isoquinolyl}methyl)amino]pyridine-4-carboxylic acid] | ≤ 100 | ≤ 100 | > 10000 | > 10000 | – | 1000 to 10000 | 100 to 1000 | 100 to 1000
Cc1ccccc1-c1ccc2c(c1)CCN(C)[C@@H]2CNc1cnccc1C(=O)O [Example 12B, (S)-3-(((2-methyl-6-(o-tolyl)-1,2,3,4-tetrahydroisoquinolin-1-yl)methyl)amino)isonicotinic acid] | – | ≤ 100 | – | 1000 to 10000 | – | – | 1000 to 10000 | ≤ 100
Cc1cc(OCC(F)(F)F)ccc1-c1ccc2c(c1)CN[C@@H]2CNc1cnccc1C(=O)O [Example 7A, 3-[({(1S)-5-[2-methyl-4-(2,2,2-trifluoro-ethoxy)phenyl]isoindolinyl}methyl)amino]pyridine-4-carboxylic acid] | ≤ 100 | ≤ 100 | 100 to 1000 | 1000 to 10000 | – | 1000 to 10000 | 1000 to 10000 | 100 to 1000

The next lines start with the values.

IC50 [1, 6] [nM] | IC50 [1, 7] [nM] | IC50 [2, 6] [nM] | IC50 [2, 7] [nM] | IC50 [3] [nM] | IC50 [4, 6] [nM] | IC50 [4, 7] [nM] | IC50 [5] [nM] | Structure (SMILES)
– | ≤ 100 | – | 1000 to 10000 | – | – | 100 to 1000 | ≤ 100 | CCc1ccc(N(C)c2ccc3c(c2)CN(C)[C@@H]3CNc2cnccc2C(=O)O)cc1 [Example 19B, (S)-3-(((5-((4-ethylphenyl)(methyl)amino)-2-methylisoindolin-1-yl)methyl)amino)isonicotinic acid]
– | ≤ 100 | – | 1000 to 10000 | – | – | 100 to 1000 | ≤ 100 | CCc1ccc(N(C)c2ccc3c(c2)CCN(C)[C@@H]3CNc2cnccc2C(=O)O)cc1 [Example 13B, (S)-3-(((6-((4-ethylphenyl)(methyl)amino)-2-methyl-1,2,3,4-tetrahydro-isoquinolin-1-yl)methyl)amino)isonicotinic acid]
– | ≤ 100 | – | 1000 to 10000 | – | – | 100 to 1000 | ≤ 100 | CCc1ccc(N(C)c2ccc3c(c2)CCN(C)[C@H]3CNc2cnccc2C(=O)O)cc1 [Example 13A, (R)-3-(((6-((4-ethylphenyl)(methyl)amino)-2-methyl-1,2,3,4-tetrahydro-isoquinolin-1-yl)methyl)amino)isonicotinic acid]
